Results on 4 molecules are retold here after ChEMBL document CHEMBL1153714, “Isolation and characterization of tirandamycins from a marine-derived Streptomyces sp” (2009).

The term MIC denotes the lowest concentration that inhibits growth of the organism. Low readings indicate greater potency, high ones weaker potency.

Structures are written as SMILES. Values after ≈ are worked out from the molar mass of the structure shown.

For the assay, the system named is Enterococcus faecalis. The assay is described as follows: Antibacterial activity against vancomycin-resistant Enterococcus faecalis after 16 hrs by microtiter plate assay. Format: functional.

The molecule `CC(/C=C/C(O)=C1/C(=O)CNC1=O)=C\[C@@H](C)[C@H]1O[C@@]2(C)O[C@H](C(=O)[C@H]3O[C@]32CO)[C@@H]1C` [TIRANDAMYCIN B] yielded an MIC of 100 µM (≈ 43.3 µg/mL). `CC(/C=C/C(O)=C1/C(=O)CNC1=O)=C\[C@@H](C)[C@H]1O[C@@]2(C)O[C@H](C(=O)[C@H]3O[C@]32C)[C@@H]1C` [TIRANDAMYCIN A] displayed an MIC of 2.25 µM (≈ 0.939 µg/mL).

As to `CC1=CC(=O)[C@H]2O[C@]1(C)O[C@H]([C@H](C)/C=C(C)/C=C/C(O)=C1/C(=O)CNC1=O)[C@H]2C` [TIRANDAMYCIN D], the MIC is above 9 µM. `CC1=CC[C@H]2O[C@]1(C)O[C@H]([C@H](C)/C=C(C)/C=C/C(O)=C1/C(=O)CNC1=O)[C@H]2C` [TIRANDAMYCIN C] showed an MIC of 110 µM (≈ 42.6 µg/mL).
